Drawing on patent US20260022142A1, “MACROCYCLIC IMMUNOMODULATORS” (Bristol-Myers Squibb Company, priority 2022, published 2026), this text covers IC50 for 11 compounds.

Bridge positions count the residues as written; N and C are the ends. Square brackets hold non-standard residues; d marks the D form. Peptide text beside a SMILES is read from it. * marks the point of attachment. ξ: configuration not given here. Phe(3-CF3) = N[C@@H](Cc1cccc(C(F)(F)F)c1)C(=O)O; Ala(morpholin-4-yl) = N[C@@H](CN1CCOCC1)C(=O)O; Phe(4-COOH) = N[C@@H](Cc1ccc(C(=O)O)cc1)C(=O)O; Bip = N[C@@H](Cc1ccc(-c2ccccc2)cc1)C(=O)O; NH(CH2)14COOH = O=C(O)CCCCCCCCCCCCCCN*; Phe(3-Me) = Cc1cccc(C[C@H](N)C(=O)O)c1; Abu(3S-NH2) = C[C@H](N)[C@H](N)C(=O)O; NH(CH2)12COOH = O=C(O)CCCCCCCCCCCCN*; Val(3-OH) = CC(C)(O)[C@H](N)C(=O)O; hArg = N=C(N)NCCCC[C@H](N)C(=O)O; Cha = N[C@@H](CC1CCCCC1)C(=O)O; Cit = NC(=O)NCCC[C@H](N)C(=O)O; Thr(3ξ) = CC(O)[C@H](N)C(=O)O; PEG4 = NCCOCCOCCOCCOCCC(=O)O; Carboxymethyl = O=C(O)C*; Orn = NCCC[C@H](N)C(=O)O; Dab = NCC[C@H](N)C(=O)O; Nva = CCC[C@H](N)C(=O)O; Dap = NC[C@H](N)C(=O)O; AEEA = NCCOCCOCC(=O)O

The target of this experiment is T1, PD-1/PD-L1 interaction (PE-labeled human PD-L1-Ig binding to Jurkat cell line over-expressing human PD-1) (Homo sapiens, UniProt Q15116).
T1 construct: expressed in transfected cells; host or cells: Jurkat
T1 sequence (Q15116 25-288): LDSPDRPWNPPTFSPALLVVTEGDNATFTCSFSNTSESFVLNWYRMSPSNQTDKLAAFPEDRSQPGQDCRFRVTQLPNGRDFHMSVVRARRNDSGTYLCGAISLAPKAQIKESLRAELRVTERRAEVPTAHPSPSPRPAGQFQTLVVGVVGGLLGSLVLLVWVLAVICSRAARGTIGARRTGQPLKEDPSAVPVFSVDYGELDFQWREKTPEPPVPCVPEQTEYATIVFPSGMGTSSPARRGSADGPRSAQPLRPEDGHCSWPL
In words: Jurkat-PD-1 Cell Binding High-Content Screening Assay (CBA). Type of experiment: cell-based. The settings on record: Jurkat cell line over-expressing human PD-1; PE-labeled PD-L1-Ig 20 nM final; read-out: Jurkat hPD1-PDL1 IC50. An outline of the steps:
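Binding of fluorescent PD-L1-Ig (20 nM final) to Jurkat-PD-1 cells was measured by automated imaging after 1 h, following a 2 h compound pre-treatment at 37° C.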
Take `CC(C)C[C@H]1NC(=O)[C@H](CCCN)NC(=O)[C@H](Cc2ccc(C(=O)O)cc2)NC(=O)[C@H](Cc2ccc(-c3ccccc3)cc2)NC(=O)[C@H](Cc2ccc(C(=O)O)cc2)NC(=O)[C@H](Cc2cccc(C(F)(F)F)c2)NC(=O)[C@H](CC(=O)O)NC(=O)[C@H](Cc2ccc(OCC(=O)O)cc2)NC(=O)[C@H]([C@H](C)N)NC(=O)CSC[C@@H](C(=O)N[C@@H](CCN)C(=O)NCCCCCCCCCCCCC(=O)O)NC(=O)[C@H](CO)NC(=O)[C@H](C(C)(C)O)NC(=O)[C@H](CC2CCCCC2)NC(=O)[C@H](CCN)NC1=O` [Compound 2944] ({CH2CO}-[Abu(3S-NH2)]Y(Carboxymethyl)D[Phe(3-CF3)][Phe(4-COOH)][Bip][Phe(4-COOH)][Orn][dL][Dab][Cha][Val(3-OH)]SC[Dab]-{NH(CH2)12COOH}; thioether N-14): the IC50 (as a rule, the concentration at which inhibition is half-maximal) amounted to 55 nM.

Take `CC(C)C[C@H]1NC(=O)[C@H](CCCN)NC(=O)[C@H](Cc2ccc(C(=O)O)cc2)NC(=O)[C@H](Cc2ccc(-c3ccccc3)cc2)NC(=O)[C@H](Cc2ccc(C(=O)O)cc2)NC(=O)[C@H](Cc2cccc(C(F)(F)F)c2)NC(=O)[C@H](CC(=O)O)NC(=O)[C@H](Cc2ccc(OCC(=O)O)cc2)NC(=O)[C@H](CN2CCOCC2)NC(=O)CSC[C@@H](C(=O)N[C@@H](CCN)C(=O)NCCOCCOCCOCCOCCC(=O)NCCCCCCCCCCCCC(=O)O)NC(=O)[C@H](CC(=O)O)NC(=O)[C@H](C(C)(C)O)NC(=O)[C@H](CC2CCCCC2)NC(=O)[C@H](CCN)NC1=O` [Compound 2947] ({CH2CO}-[Ala(morpholin-4-yl)]Y(Carboxymethyl)D[Phe(3-CF3)][Phe(4-COOH)][Bip][Phe(4-COOH)][Orn][dL][Dab][Cha][Val(3-OH)]DC[Dab][PEG4]-{NH(CH2)12COOH}; thioether N-14): the IC50 amounted to 64.4 nM.

On to `CC(C)C[C@H]1NC(=O)[C@H](CCCN)NC(=O)[C@H](Cc2ccc(C(=O)O)cc2)NC(=O)[C@H](Cc2ccc(-c3ccccc3)cc2)NC(=O)[C@H](Cc2ccc(C(=O)O)cc2)NC(=O)[C@H](Cc2cccc(C(F)(F)F)c2)NC(=O)[C@H](CC(=O)O)NC(=O)[C@H](Cc2ccc(OCC(=O)O)cc2)NC(=O)[C@H](CN2CCOCC2)NC(=O)CSC[C@@H](C(=O)N[C@@H](CCN)C(=O)NCCOCCOCCOCCOCCC(=O)NCCCCCCCCCCCCCCC(=O)O)NC(=O)[C@H](CC(=O)O)NC(=O)[C@H](C(C)(C)O)NC(=O)[C@H](CC2CCCCC2)NC(=O)[C@H](CCN)NC1=O` [Compound 2948] ({CH2CO}-[Ala(morpholin-4-yl)]Y(Carboxymethyl)D[Phe(3-CF3)][Phe(4-COOH)][Bip][Phe(4-COOH)][Orn][dL][Dab][Cha][Val(3-OH)]DC[Dab][PEG4]-{NH(CH2)14COOH}; thioether N-14), for which the IC50 turned out to be 352 nM.

As for `CC(C)C[C@H]1NC(=O)[C@H](CCCN)NC(=O)[C@H](Cc2ccc(C(=O)O)cc2)NC(=O)[C@H](Cc2ccc(-c3ccccc3)cc2)NC(=O)[C@H](Cc2ccc(C(=O)O)cc2)NC(=O)[C@H](Cc2cccc(C(F)(F)F)c2)NC(=O)[C@H](CC(=O)O)NC(=O)[C@H](Cc2ccc(OCC(=O)O)cc2)NC(=O)[C@H](CN2CCOCC2)NC(=O)CSC[C@@H](C(=O)N[C@@H](CCN)C(=O)NCCCCCCCCCCCCCCC(=O)O)NC(=O)[C@H](CC(=O)O)NC(=O)[C@H](C(C)(C)O)NC(=O)[C@H](CC2CCCCC2)NC(=O)[C@H](CCN)NC1=O` [Compound 2949] ({CH2CO}-[Ala(morpholin-4-yl)]Y(Carboxymethyl)D[Phe(3-CF3)][Phe(4-COOH)][Bip][Phe(4-COOH)][Orn][dL][Dab][Cha][Val(3-OH)]DC[Dab]-{NH(CH2)14COOH}; thioether N-14), the IC50 came to 305 nM.

`CCC[C@@H]1NC(=O)CSC[C@@H](C(=O)N[C@@H](CCN)C(=O)NCCOCCOCCOCCOCCC(=O)NCCCCCCCCCCCCC(=O)O)NC(=O)[C@H](Cc2c[nH]cn2)NC(=O)[C@H](C(C)(C)O)NC(=O)[C@H](CC2CCCCC2)NC(=O)[C@H](CCN)NC(=O)[C@@H](CC(C)C)NC(=O)[C@H](CCCN)NC(=O)[C@H](Cc2ccc(C(=O)O)cc2)NC(=O)[C@H](Cc2ccc(-c3ccccc3)cc2)NC(=O)[C@H](Cc2ccc(C(=O)O)cc2)NC(=O)[C@H](Cc2cccc(C(F)(F)F)c2)NC(=O)[C@H](CC(=O)O)NC(=O)[C@H](Cc2ccc(OCC(=O)O)cc2)NC1=O` [Compound 2950] ({CH2CO}-[Nva]Y(Carboxymethyl)D[Phe(3-CF3)][Phe(4-COOH)][Bip][Phe(4-COOH)][Orn][dL][Dab][Cha][Val(3-OH)]HC[Dab][PEG4]-{NH(CH2)12COOH}; thioether N-14): the IC50 was determined as 52.4 nM.

In the case of `CC(C)C[C@H]1NC(=O)[C@H](CCCN)NC(=O)[C@H](Cc2ccc(C(=O)O)cc2)NC(=O)[C@H](Cc2ccc(-c3ccccc3)cc2)NC(=O)[C@H](Cc2ccc(C(=O)O)cc2)NC(=O)[C@H](Cc2cccc(C(F)(F)F)c2)NC(=O)[C@H](CC(=O)O)NC(=O)[C@H](Cc2ccc(OCC(=O)O)cc2)NC(=O)[C@H](C)NC(=O)CSC[C@@H](C(=O)N[C@@H](CCN)C(=O)NCCOCCOCCOCCOCCC(=O)NCCCCCCCCCCCCC(=O)O)NC(=O)[C@H](Cc2c[nH]cn2)NC(=O)[C@H](C(C)(C)O)NC(=O)[C@H](CC2CCCCC2)NC(=O)[C@H](CCN)NC1=O` [Compound 2953] ({CH2CO}-AY(Carboxymethyl)D[Phe(3-CF3)][Phe(4-COOH)][Bip][Phe(4-COOH)][Orn][dL][Dab][Cha][Val(3-OH)]HC[Dab][PEG4]-{NH(CH2)12COOH}; thioether N-14), the IC50 came out at 49.3 nM.

Regarding `CC(C)C[C@H]1NC(=O)[C@H](CCCN)NC(=O)[C@H](Cc2ccc(C(=O)O)cc2)NC(=O)[C@H](Cc2ccc(-c3ccccc3)cc2)NC(=O)[C@H](Cc2ccc(C(=O)O)cc2)NC(=O)[C@H](Cc2cccc(C(F)(F)F)c2)NC(=O)[C@H](CC(=O)O)NC(=O)[C@H](Cc2ccc(OCC(=O)O)cc2)NC(=O)[C@H](C)NC(=O)CSC[C@@H](C(=O)N[C@@H](CCN)C(=O)NCCOCCOCCOCCOCCC(=O)NCCCCCCCCCCCCCCC(=O)O)NC(=O)[C@H](Cc2c[nH]cn2)NC(=O)[C@H](C(C)(C)O)NC(=O)[C@H](CC2CCCCC2)NC(=O)[C@H](CCN)NC1=O` [Compound 2954] ({CH2CO}-AY(Carboxymethyl)D[Phe(3-CF3)][Phe(4-COOH)][Bip][Phe(4-COOH)][Orn][dL][Dab][Cha][Val(3-OH)]HC[Dab][PEG4]-{NH(CH2)14COOH}; thioether N-14), the IC50 worked out at 264 nM.

With `CC(C)C[C@@H]1NC(=O)[C@H](Cc2c[nH]c3ccccc23)NC(=O)[C@H](CC(=O)O)NC(=O)[C@H](Cc2ccc(OCC(=O)O)cc2)NC(=O)[C@H](CCCCNC(=N)N)NC(=O)CSC[C@@H](C(=O)N[C@@H](C)C(=O)NCCOCCOCC(=O)N[C@@H](CCCCN)C(=O)NCCOCCOCC(=O)NCCCCCCCCCCCCCCC(=O)O)NC(=O)[C@H](CO)NC(=O)[C@H](C(C)C)NC(=O)[C@H](CC2CCCCC2)NC(=O)[C@H](CCN)NC(=O)[C@@H](CC(C)C)NC(=O)[C@H](CCCN)NC(=O)[C@H](C(C)C)NC(=O)[C@H](Cc2ccc(-c3ccccc3)cc2)NC1=O` [Compound 3006] ({CH2CO}-[hArg]Y(Carboxymethyl)DWL[Bip]V[Orn][dL][Dab][Cha]VSCA[AEEA]K[AEEA]-{NH(CH2)14COOH}; thioether N-14), the IC50 came out at 129 nM.

For the compound `Cc1cccc(C[C@@H]2NC(=O)[C@H](CC(=O)O)NC(=O)[C@H](Cc3ccc(OCC(=O)O)cc3)NC(=O)[C@H](CN)NC(=O)CSC[C@@H](C(=O)N[C@@H](C)C(=O)N[C@@H](CCCCN)C(=O)NCC(=O)NCCCCCCCCCCCCCCC(=O)O)NC(=O)[C@H](C(C)O)NC(=O)[C@H](C(C)C)NC(=O)[C@H](CC3CCCCC3)NC(=O)[C@H](CCN)NC(=O)[C@@H](CC(C)C)NC(=O)[C@H](CCCN)NC(=O)[C@H](CCCNC(N)=O)NC(=O)[C@H](Cc3ccc(-c4ccccc4)cc3)NC(=O)[C@H](C(C)C)NC2=O)c1` (stereo partly drawn) [Compound 3007] ({CH2CO}-[Dap]Y(Carboxymethyl)D[Phe(3-Me)]V[Bip][Cit][Orn][dL][Dab][Cha]V[Thr(3ξ)]CAKG-{NH(CH2)14COOH}; thioether N-14), the IC50 was 180 nM.

Turning to `CC(C)C[C@H]1NC(=O)[C@H](CCCN)NC(=O)[C@H](CCN)NC(=O)[C@H](Cc2ccc(-c3ccccc3)cc2)NC(=O)[C@H](C(C)C)NC(=O)[C@H](Cc2c[nH]c3ccccc23)NC(=O)[C@H](CC(=O)O)NC(=O)[C@H](Cc2ccc(OCC(=O)O)cc2)NC(=O)[C@H](CN)NC(=O)CSC[C@@H](C(=O)N[C@@H](CC(N)=O)C(=O)NCC(=O)NCCCCCCCCCCCCCCC(=O)O)NC(=O)[C@H](CO)NC(=O)[C@H](C(C)C)NC(=O)[C@H](CC2CCCCC2)NC(=O)[C@H](CCN)NC1=O` [Compound 3008] ({CH2CO}-[Dap]Y(Carboxymethyl)DWV[Bip][Dab][Orn][dL][Dab][Cha]VSCNG-{NH(CH2)14COOH}; thioether N-14), the IC50 was determined as 552 nM.

Consider `CC(C)C[C@H]1NC(=O)[C@H](CCCN)NC(=O)[C@H](C(C)C)NC(=O)[C@H](Cc2ccc(-c3ccccc3)cc2)NC(=O)[C@H](C(C)C)NC(=O)[C@H](Cc2c[nH]c3ccccc23)NC(=O)[C@H](CC(=O)O)NC(=O)[C@H](Cc2ccc(C(=O)O)cc2)NC(=O)[C@H](CCCCNC(=N)N)NC(=O)CSC[C@@H](C(=O)N[C@@H](C)C(=O)N[C@@H](CCCCN)C(=O)NCCCCCCCCCCCCCCC(=O)O)NC(=O)[C@H](C(C)O)NC(=O)[C@H](C(C)C)NC(=O)[C@H](CC2CCCCC2)NC(=O)[C@H](CCN)NC1=O` (stereo partly drawn) [Compound 3016] ({CH2CO}-[hArg][Phe(4-COOH)]DWV[Bip]V[Orn][dL][Dab][Cha]V[Thr(3ξ)]CAK-{NH(CH2)14COOH}; thioether N-14), for which the IC50 stood at 94.5 nM.
